ChEMBL document CHEMBL4229327, “Chemical Approaches to Modulating Complement-Mediated Diseases” (J Med Chem, 2018)
Blank lines part the entries; values can stand above or below the compound they belong to. Bridge positions count the residues as written; N and C are the ends. Peptide text beside a SMILES is read from it.

Tests used:
[1] = target: T1, Complement C1s subcomponent (Homo sapiens, UniProt P09871); assay: Inhibition of C1s (unknown origin) using Cbz-Gly-Arg-S-Bzl as substrate preincubated with substrate for 15 mins followed by enzyme addition and measured after 5 mins
T1 sequence (P09871 whole entry): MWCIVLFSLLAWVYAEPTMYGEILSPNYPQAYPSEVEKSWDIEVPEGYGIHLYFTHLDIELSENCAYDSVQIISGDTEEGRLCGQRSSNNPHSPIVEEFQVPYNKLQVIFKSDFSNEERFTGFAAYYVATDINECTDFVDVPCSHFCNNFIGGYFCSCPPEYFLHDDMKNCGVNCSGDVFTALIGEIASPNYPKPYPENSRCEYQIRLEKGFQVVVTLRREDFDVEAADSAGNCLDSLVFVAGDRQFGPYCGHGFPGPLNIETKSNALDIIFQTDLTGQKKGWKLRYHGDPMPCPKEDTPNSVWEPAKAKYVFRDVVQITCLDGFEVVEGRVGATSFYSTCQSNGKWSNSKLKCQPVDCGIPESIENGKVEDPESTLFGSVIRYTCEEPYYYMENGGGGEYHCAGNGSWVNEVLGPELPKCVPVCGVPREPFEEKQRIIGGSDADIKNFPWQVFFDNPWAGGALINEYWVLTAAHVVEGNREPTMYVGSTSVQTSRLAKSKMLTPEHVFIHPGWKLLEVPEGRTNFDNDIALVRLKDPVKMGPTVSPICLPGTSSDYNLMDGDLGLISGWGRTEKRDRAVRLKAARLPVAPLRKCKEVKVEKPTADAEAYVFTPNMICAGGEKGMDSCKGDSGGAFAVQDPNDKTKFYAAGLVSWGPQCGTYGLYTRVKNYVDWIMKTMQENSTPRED

[2] = Inhibition of human plasma C1q-mediated rabbit RBC lysis after 60 mins
[3] = Inhibition of chimpanzee serum C1q-mediated rabbit RBC lysis after 60 mins; design: species or system Pan troglodytes
[4] = Inhibition of rhesus monkey serum C1q-mediated rabbit RBC lysis after 60 mins; design: species or system Macaca mulatta
[5] = Inhibition of rat serum C1q-mediated rabbit RBC lysis after 60 mins
[6] = Inhibition of mouse serum C1q-mediated rabbit RBC lysis after 60 mins
[7] = target: T2, Mannan-binding lectin serine protease 1 (Homo sapiens, UniProt P48740); assay: Inhibition of MASP-1 (unknown origin) using Z-L-LysSBzl hydrochloride as substrate preincubated for 1 hr followed by substrate addition
T2 sequence (P48740 whole entry): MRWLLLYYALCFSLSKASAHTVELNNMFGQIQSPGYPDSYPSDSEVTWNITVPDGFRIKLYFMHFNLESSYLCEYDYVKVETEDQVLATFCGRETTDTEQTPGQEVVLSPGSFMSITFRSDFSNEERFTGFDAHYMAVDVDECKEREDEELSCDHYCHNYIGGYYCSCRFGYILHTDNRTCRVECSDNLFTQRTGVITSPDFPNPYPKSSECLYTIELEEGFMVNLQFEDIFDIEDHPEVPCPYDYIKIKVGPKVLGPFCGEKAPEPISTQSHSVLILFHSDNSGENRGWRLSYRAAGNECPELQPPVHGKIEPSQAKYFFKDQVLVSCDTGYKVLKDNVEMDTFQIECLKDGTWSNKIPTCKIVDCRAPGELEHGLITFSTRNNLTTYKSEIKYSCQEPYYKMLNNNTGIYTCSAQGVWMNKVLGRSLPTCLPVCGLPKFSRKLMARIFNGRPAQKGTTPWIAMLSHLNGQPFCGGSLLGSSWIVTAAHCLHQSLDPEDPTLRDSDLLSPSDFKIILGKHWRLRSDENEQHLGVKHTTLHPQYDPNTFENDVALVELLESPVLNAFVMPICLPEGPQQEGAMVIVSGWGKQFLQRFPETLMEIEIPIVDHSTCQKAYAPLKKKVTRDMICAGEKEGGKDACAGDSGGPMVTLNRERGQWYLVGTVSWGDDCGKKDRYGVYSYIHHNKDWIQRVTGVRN

[8] = target: T3, Mannan-binding lectin serine protease 2 (Homo sapiens, UniProt O00187); assay: Inhibition of MASP-2 (unknown origin) using Z-L-LysSBzl hydrochloride as substrate preincubated for 1 hr followed by substrate addition
[9] = target: T3, Mannan-binding lectin serine protease 2; assay: Inhibition of MASP-2-mediated C4 deposition in human serum after 1 hr by ELISA
[10] = target: T2, Mannan-binding lectin serine protease 1; assay: Inhibition of MASP-1-mediated C3 deposition in human serum after 30 mins by ELISA
[11] = target: T4, Complement C1r subcomponent (Homo sapiens, UniProt P00736); assay: Inhibition of human plasma C1r using Cbz-Gly-Arg-S-Bzl as substrate preincubated for 10 mins followed by substrate addition and measured after 30 mins by DTNB reagent-based two-beam microtiter plate photometer
T4 sequence (P00736 whole entry): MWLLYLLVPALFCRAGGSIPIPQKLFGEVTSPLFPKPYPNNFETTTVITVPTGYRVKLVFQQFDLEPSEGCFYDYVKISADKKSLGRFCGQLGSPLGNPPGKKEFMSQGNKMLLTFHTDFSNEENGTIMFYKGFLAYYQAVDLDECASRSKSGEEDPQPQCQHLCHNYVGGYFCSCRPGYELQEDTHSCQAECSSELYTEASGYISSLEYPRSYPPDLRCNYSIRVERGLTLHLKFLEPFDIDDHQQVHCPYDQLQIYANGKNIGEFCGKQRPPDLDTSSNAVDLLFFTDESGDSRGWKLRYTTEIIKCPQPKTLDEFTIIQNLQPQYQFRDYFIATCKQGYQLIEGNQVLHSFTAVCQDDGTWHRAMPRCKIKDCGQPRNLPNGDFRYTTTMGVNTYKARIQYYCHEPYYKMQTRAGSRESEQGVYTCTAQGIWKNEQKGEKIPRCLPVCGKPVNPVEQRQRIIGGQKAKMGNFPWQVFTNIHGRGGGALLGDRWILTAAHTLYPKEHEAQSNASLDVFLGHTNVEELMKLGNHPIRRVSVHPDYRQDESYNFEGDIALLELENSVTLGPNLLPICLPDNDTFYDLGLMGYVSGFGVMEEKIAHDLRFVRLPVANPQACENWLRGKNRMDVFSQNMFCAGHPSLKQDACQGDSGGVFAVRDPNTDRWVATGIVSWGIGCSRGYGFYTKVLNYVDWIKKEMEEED

[12] = target: T1, Complement C1s subcomponent; assay: Inhibition of human plasma C1s using Cbz-Gly-Arg-S-Bzl as substrate preincubated for 10 mins followed by substrate addition and measured after 30 mins by DTNB reagent-based two-beam microtiter plate photometer
[13] = target: T4, Complement C1r subcomponent; assay: Inhibition of human serum C1r using AAME as substrate after 30 mins
[14] = target: T1, Complement C1s subcomponent; assay: Inhibition of human serum C1s using AGLME as substrate after 30 mins
[15] = Inhibition of guinea pig C1q-mediated sheep RBC lysis; design: species or system Cavia porcellus
[16] = target: T2, Mannan-binding lectin serine protease 1; assay: Inhibition of recombinant […] fragment of MASP-1 (unknown origin)
[17] = target: T2, Mannan-binding lectin serine protease 1; assay: Inhibition of MASP1 (unknown origin)-induced lectin pathway by ELISA
[18] = Binding affinity to C1q (unknown origin) by SPR method; design: species or system Homo sapiens
[19] = Inhibition of bovine trypsin esterolytic activity using Na-benzoyl-L-Arg-nitroanalide as substrate; design: species or system Bos taurus
[20] = Inhibition of rat serum alternative complement system-mediated lysis of guinea pig erythrocytes
[21] = Selectivity ratio of IC50 for rat serum alternative complement system-mediated lysis of guinea pig erythrocytes to IC50 for human serum C1s-mediated lysis of rabbit Ab-sensitized sheep erythrocytes after 60 mins

T3 sequence (O00187 16-444 limits assumed): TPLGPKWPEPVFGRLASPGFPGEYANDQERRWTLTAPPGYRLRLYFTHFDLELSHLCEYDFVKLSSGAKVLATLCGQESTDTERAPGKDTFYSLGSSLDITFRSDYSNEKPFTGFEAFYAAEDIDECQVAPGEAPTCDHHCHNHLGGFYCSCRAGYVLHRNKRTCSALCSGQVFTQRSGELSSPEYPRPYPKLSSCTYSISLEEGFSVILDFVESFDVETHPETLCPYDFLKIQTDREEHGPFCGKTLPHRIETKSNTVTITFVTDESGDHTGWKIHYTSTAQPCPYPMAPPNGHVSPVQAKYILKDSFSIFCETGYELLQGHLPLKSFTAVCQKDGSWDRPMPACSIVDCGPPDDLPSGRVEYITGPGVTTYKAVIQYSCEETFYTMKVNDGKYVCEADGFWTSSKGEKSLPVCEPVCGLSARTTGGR
T3 sequence (O00187 445-686 limits assumed): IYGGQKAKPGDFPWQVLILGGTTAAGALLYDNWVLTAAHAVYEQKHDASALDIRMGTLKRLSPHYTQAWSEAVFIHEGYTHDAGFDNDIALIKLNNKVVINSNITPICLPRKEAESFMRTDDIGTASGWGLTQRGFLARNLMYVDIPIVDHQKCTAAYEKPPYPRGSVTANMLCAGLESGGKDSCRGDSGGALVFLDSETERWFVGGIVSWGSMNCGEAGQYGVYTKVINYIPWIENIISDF

Ki [1]: 30 nM
Compound: CSc1sc(C(=N)N)cc1-c1nc(-c2cccc(NS(=O)(=O)c3ccc(F)cc3F)c2)cs1

IC50 [2]: 2000 nM
IC50 [3]: 2000 to 6000 nM
IC50 [4]: 2000 to 6000 nM
IC50 [5]: 2000 to 6000 nM
IC50 [6]: 2000 to 6000 nM
Compound: CC(C)C[C@@H]1NC(=O)[C@H](CC(=O)O)NC(=O)[C@H](Cc2c[nH]cn2)NC(=O)[C@H](CCCNC(=N)N)NC(=O)[C@@H]2CCCN2C(=O)CNC(=O)[C@H](Cc2ccccc2)NC(=O)[C@@H]2CCCN2C(=O)CNC(=O)[C@H](CCC(=O)O)NC(=O)[C@@H](N)CSSC[C@@H](C(=O)N[C@@H](Cc2c[nH]c3ccccc23)C(=O)O)NC(=O)[C@H](Cc2ccccc2)NC(=O)[C@H]([C@@H](C)O)NC1=O (H-CEGPFGPRHDLTFCW-OH; disulfide 1-14)

Compound: CC[C@H](C)[C@H](NC(=O)CN)C(=O)N[C@@H](CS)C(=O)N[C@@H](CO)C(=O)N[C@@H](CCCNC(=N)N)C(=O)N[C@@H](CO)C(=O)N[C@@H](CC(C)C)C(=O)N1CCC[C@H]1C(=O)N1CCC[C@H]1C(=O)N[C@H](C(=O)N[C@@H](CS)C(=O)N[C@H](C(=O)N1CCC[C@H]1C(=O)N[C@@H](CC(=O)O)C(=O)O)[C@@H](C)CC)[C@@H](C)CC (H-GICSRSLPPICIPD-OH)
Ki [7]: 65 nM
Ki [8]: 1030 nM
IC50 [9]: 230 nM
IC50 [10]: 40 nM

IC50 [11]: 600 nM
IC50 [12]: 900 nM
Compound: CC(C)[C@@H](NC(=O)Cc1c(Cl)cccc1Cl)C(=O)N1CC=CC1C(=O)NCc1ccc(C(=N)N)s1 (stereo partly specified)

IC50 [13]: 800 nM
IC50 [14]: 29 nM
Compound: N=C(N)c1ccc2cc(OC(=O)c3ccc(N=C(N)N)cc3)ccc2c1 [NAFAMOSTAT]

IC50 [15]: 166000 nM
Compound: CC(=O)N[C@@H](C)C(=O)N[C@@H](CCC(=O)O)C(=O)N[C@@H](C)C(=O)N[C@@H](CCCCN)C(=O)N[C@@H](C)C(=O)N[C@@H](CCCCN)C(=O)N[C@@H](C)C(N)=O (Ac-AEAKAKA-NH2)

Ki [16]: 7 nM
IC50 [17]: 42 nM
Compound: CC(C)C[C@H](NC(=O)[C@H](CCCCN)NC(=O)[C@H](CCCNC(=N)N)NC(=O)[C@@H](NC(=O)[C@H](CS)NC(=O)[C@H](Cc1ccccc1)NC(=O)[C@H](C)NC(=O)[C@H](CO)NC(=O)[C@H](CCCCN)NC(=O)CNC(=O)[C@H](CC(=O)O)NC(=O)[C@H](CO)NC(=O)CNC(=O)[C@H](CS)NC(=O)[C@H](CCCNC(=N)N)NC(=O)[C@H](CS)NC(=O)[C@@H](NC(=O)[C@H](CC(N)=O)NC(=O)[C@H](CS)NC(=O)[C@H](CCCCN)NC(=O)[C@H](CC(=O)O)NC(=O)[C@H](CCCCN)NC(=O)[C@H](Cc1ccccc1)NC(=O)[C@@H](NC(=O)[C@@H](NC(=O)CNC(=O)[C@@H]1CCCN1C(=O)[C@H](CCC(=O)O)NC(=O)[C@H](CS)NC(=O)[C@@H](NC(=O)[C@@H](N)C(C)C)[C@@H](C)O)[C@@H](C)O)[C@@H](C)O)[C@@H](C)O)[C@@H](C)O)C(=O)N[C@@H](CS)C(=O)N[C@@H](Cc1ccc(O)cc1)C(=O)N[C@@H](CCC(N)=O)C(=O)O (H-VTCEPGTTFKDKCNTCRCGSDGKSAFCTRKLCYQ-OH)

Compound: CC[C@H](C)[C@H](N)C(=O)N[C@@H](C)C(=O)N[C@@H](CC(C)C)C(=O)N[C@H](C(=O)N[C@@H](CC(C)C)C(=O)N[C@@H](CCC(=O)O)C(=O)N1CCC[C@H]1C(=O)N[C@H](C(=O)N[C@@H](CS)C(=O)N[C@@H](CS)C(=O)N[C@@H](CCC(N)=O)C(=O)N[C@@H](CCC(=O)O)C(=O)N[C@@H](CCCNC(=N)N)C(=O)N[C@@H](C)C(=O)N[C@@H](C)C(=O)O)[C@@H](C)CC)[C@@H](C)CC
Kd [18]: 33 nM

IC50 [19]: 326 nM
IC50 [20]: 330 nM
Compound: N=C(N)c1cc2ccc(OC(=O)c3cccs3)cc2s1
Ratio IC50 [21]: 7
